Data reported in patent US12486229B2, “Indole derivative and application thereof” (SHANGHAI MEDICILON INC., priority 2020, dated 2025).

Legend:
[1] = target: T1, S1P1 (Homo sapiens, UniProt P21453); experiment: S1P1 overexpression cell activity by β-arrestin assay (U2OS-EDG1); type: cell-based; settings: U2OS-EDG1 cells
T1 construct: host or cells: U2OS (human osteosarcoma) cell line, U2OS-EDG1
Procedure: The following experiments were conducted to detect the activity of the compound on S1P1 overexpression cells by β-arrestin assay. [table] [table] 3. Experimental Steps Day 1: Cell Seeding Plate and Compound Treatment • (1) Firstly, the compound was diluted by a 4-fold gradient into 10 concentration points from the concentration of 10 μM in the culture plate by using NL fluid transfer system, with 2 replicates at each concentration point. • (2) Cells were resuspended by using FreeStyle™ expression medium, and the cell density was adjusted to 7,500 cells per 40 μL suspension. The samples with test concentration were added into the well of the cell culture plate, and 40 μL cell suspension was added into the corresponding well. • (3) The above cell plates were incubated overnight in a CO2 incubator with 5% (volume fraction) at 37° C. Day 2: Detection and Data Analysis • (1) The buffer solution was prepared according to the preparation method in the instructions of LiveBLAser™-fluorescence resonance energy transfer B/G loading kit. • (2) 8 μL detection reagent was added to each well, which were shaken and mixed evenly for 1 minute, centrifugated at 1,000 rpm for 10 seconds, and incubated at 23° C. in dark for 2 hours. • 3) Detection was performed by multimode reader. • 4) The PrismDemo software was used to analyze the data and fit the curve. 4. Experimental Results

[2] = test system: TNBS induced ulcerative colitis in rats; experiment: TNBS induced ulcerative colitis in rats; type: in vivo, rat; settings: for Colon length / Colon weight / Colon weight/colon length / Ulcer area: day 8; for General anatomical view of colon, from excellent to poor: 7 days administration, SASP 360, Example 3 and Etrasimod 3, Ozanimod 10 mg/kg; for Drug efficacy intensity (colon weight): oral gavage for 7 consecutive days, doses as given in ranking
Procedure: Preparation of molding agent: 5 mL TNBS and 8.953 mL anhydrous ethanol and 26.741 sterilized water for injection. • TNBS comes from Dalian Meilun Biotechnology Co., Ltd. • Source of SPF male SD rats: Shanghai Slake Experimental Animal Co., Ltd. • Animal age at the beginning of the experiment: 8 to 10 weeks; • Animal weight at the beginning of the experiment: about 250 g; • Adaptation time: 5 to 7 days; • Animals were fasted (only water) for 24 hours. After inhalation anesthesia with isoflurane, all rats were perfused with 0.5 mL TNBS ethanol solution per rat (18 mg TNBS/rat) via rectum with latex hose, with the length of the hose entering the rectum of about 8 cm. After withdrawing the hose, the rats remained under isoflurane anesthesia, and kept in the inclined state of hip elevation for 15 minutes.
The rats after modeling were randomly divided into 5 groups: model group, positive control group using drug sulfasalazine (SASP, 360 mg/kg), test substance group using the compound of Example 3 (3 mg/kg), test substance group using Etrasimod (3 mg/kg), test substance group using Ozanimod (10 mg/kg).
At 3 hours after modeling, the animals in each group were administrated with medicine solution by oral gavage (Table 1), 5 mL/kg body weight (10 mL/kg in sulfasalazine group), once a day, for 7 consecutive days, and the feces of the animals and whether there is death were observed every day. On the 8th day, the animals were killed under CO2 overdose anesthesia followed by being dissected, the entire colon tissue was extracted, the contents of the colon were cleaned after longitudinal dissection along the mesenteric side, the colon was weighed and measured for its length, the area of the ulcer was measured, and the general situation was observed and photos were taken. Finally, the colon was fixed in 10% formalin, and H&E staining and histopathological analysis (inflammation, goblet cells, lesion depth, ulcer degree, crypt abscess) were performed.
Wherein, the compound of Example 3 of the invention, purity: 99.74%. • Etrasimod, prepared according to the literature method (the second isomer of Example 1.29 in WO2010/011316A1), purity: 98.47%. • Ozanimod, prepared according to the literature method (compound 86 in WO2011/060392A1), purity: 99.78%. • Sulfasalazine enteric-coated tablets, produced by Shanghai Fuda Pharmaceutical Co., Ltd., 0.25 g/tablet. Enteric coated tablets show yellow to brownish yellow after the coating is removed. • Solutol: Beijing Fengli Jingqiu Pharmaceutical Co., Ltd. • Solvent preparation: • DMSO, Solutol and 0.9% sodium chloride solution were mixed according to the volume ratio of 5:10:85 to prepare the solvent.
Preparation of compound of Example 3 and Etrasimod solution: 27 mg of test substances were taken respectively and dissolved in 45 mL of solvent to obtain corresponding test substance solution.
Ozanimod: 90 mg Ozanimod was dissolved in 45 mL solvent to obtain Ozanimod solution.
Preparation of SASP solution: six sulfasalazine enteric-coated tablets after grinding were added to 41.7 mL 0.5% CMC-Na, and then dissolved by ultrasonic to obtain SASP solution.
Due to the excipient factor of SASP drug preparation, the concentration should not be too high when suspended in 0.5% CMC-Na, otherwise the suspension was uneven and the mobility was poor, so the dose volume of SASP was doubled compared with the compound of Example 3 and Etrasimod.

[3] = test system: DSS induced ulcerative colitis in mice; experiment: DSS induced ulcerative colitis in mice; type: in vivo; design: key to Total stool scores: sum of shape (1-3) and bleeding (1-3) levels; normal = 1 each; settings: for Weight / Total stool scores: 20 mg/kg oral gavage once a day
Procedure: Molecular weight of DSS dextran sodium sulfate: 36,000 to 50,000, From MP Biomedical Company.
Preparation of molding agent: preparation of 3.5% DSS: 49 g DSS plus 1,400 mL high-temperature sterilized water.
Source of SPF male C57BL/6 mice: Beijing Weitong Lihua Experimental Animal Technology Co., Ltd. • Animal age at the beginning of the experiment: 6 to 8 weeks; • Animal weight at the beginning of the experiment: 22 to 25 g; • Adaptation time: 3 to 5 days;
The mice were divided into groups according to their weight, 10 mice in each group. The mice were administrated once a day by gavage (or blank) according to the following Table 4.
Animals were given 3.5% DSS solution for free drinking water modeling (the day of modeling was recorded as day 1), and the modeling agent was replaced once every two days for 7 consecutive days, and then (day 8) 3.5% DSS was replaced with ordinary drinking water for another 1 day.
• Preparation of solvent 1: 0.66 mL DMSO, 1.32 mL Solutol and 11.22 mL Saline were mixed to prepare 13.2 mL of solvent 1; • Preparation of solvent 2: 0.3 mL DMSO, 0.6 mL Solutol and 5.1 mL Saline were mixed to prepare 6 mL of solvent 2; • Preparation of solution of compound of Example 3: 39.6 mg of compound of Example 3 was dissolved in 13.2 mL of solvent 1 to obtain the solution of compound 1 of Example 3, the solution 1 of compound of Example 3 was diluted with solvent 1 to prepare the solution of compound of Example 3 with concentrations of 2 mg/mL, 1 mg/mL, and 0.6 mg/mL; • Etrasimod solution: 6 mg of Etrasimod was dissolve in 6 mL of solvent 2 to obtain Etrasimod solution; • Ozanimod solution: 12 mg of […] was dissolved in 6 mL solvent 2 to obtain Ozanimod solution; • Note: Prepare once every two days, and store in refrigerator at 4° C.
Wherein, the purity of compound of Example 3 was 99.74%, Ozanimod and Etrasimod were prepared by the method described in Example 8, and the purities were 99.78% and 98.47% respectively.
The mouse stool was observed on its shape, bleeding condition every two days, and scored. Scoring criteria for stool condition: shape: normal (level 1), soft stool (level 2), and loose stool (level 3); traits: normal (level 1), faint redness (level 2), and bloody stool visible to the unaided eye (level 3).
After the last administration (8 consecutive days), the animals were dissected on the next day (day 9), the colon was separated, the whole colon was photographed, and the colon length was measured. Then the colon was cut longitudinally along the mesenteric side to remove the contents, which was weighed and observed on the integrity of the colonic mucosa. The colon was then fixed in 10% formalin.

[4] = 10 mg/kg oral gavage once a day for 7 days
[5] = 360 mg/kg oral gavage once a day for 7 days

T1 sequence (P21453 whole entry): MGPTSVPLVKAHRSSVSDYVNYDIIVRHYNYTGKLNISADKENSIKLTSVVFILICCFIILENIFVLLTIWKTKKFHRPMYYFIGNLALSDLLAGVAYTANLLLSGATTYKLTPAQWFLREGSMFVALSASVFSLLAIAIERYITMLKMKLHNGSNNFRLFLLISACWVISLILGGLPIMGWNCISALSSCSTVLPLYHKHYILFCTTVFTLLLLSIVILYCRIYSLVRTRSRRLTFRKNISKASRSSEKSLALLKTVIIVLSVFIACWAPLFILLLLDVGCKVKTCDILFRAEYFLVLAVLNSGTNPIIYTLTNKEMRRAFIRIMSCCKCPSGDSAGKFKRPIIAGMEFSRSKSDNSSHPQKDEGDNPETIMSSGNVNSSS

## Cc1cc(OCc2ccc(C3CCCC3)c(C(F)(F)F)c2)cc2ccn(CCC(=O)O)c12 [Compound of Example 1, 3-(5-((4-cyclopentyl-3-(trifluoromethyl)benzyl)oxy)-7-methyl-1H-indole-1-yl)propionic acid]
[1]
  IC50: 0.51 nM

## CCc1cc(OCc2ccc(C3CCCC3)c(C(F)(F)F)c2)cc2ccn(CCC(=O)O)c12 [Compound of Example 2, 3-(5-((4-cyclopentyl-3-(trifluoromethyl)benzyl)oxy)-7-ethyl-1H-indole-1-yl)propionic acid]
[1]
  IC50: 3.27 nM

## Cc1cc(OCc2ccc(C3CCCC3)c(C(F)(F)F)c2)cc2ccn(CCCC(=O)O)c12 [Compound of Example 4, 4-(5-((4-cyclopentyl-3-(trifluoromethyl)benzyl)oxy)-7-methyl-1H-indole-1-yl)butyric acid]
[1]
  IC50: 1.73 nM

## O=C(O)CCCn1ccc2cc(OCc3ccc(C4CCCC4)c(C(F)(F)F)c3)cc(Cl)c21 [Compound of Example 5, 4-(7-chlorine-5-((4-cyclopentyl-3-(trifluoromethyl)benzyl)oxy)-1H-indole-1-yl)butyric acid]
[1]
  IC50: 0.251 nM

## O=C(O)Cn1ccc2cc(OCc3ccc(C4CCCC4)c(C(F)(F)F)c3)ccc21 [Compound of Example 6, 2-(5-((4-cyclopentyl-3-(trifluoromethyl)benzyl)oxy)-1H-indole-1-yl)acetic acid]
[1]
  IC50: 175 nM

## CC(C)Oc1ccc(-c2nc(-c3cccc4c3CC[C@@H]4NCCO)no2)cc1C#N [Ozanimod, reference compound]
[2]; [4]
  Colon length: 13.09 ± 0.5 cm
  Colon weight: 3.30 ± 0.53 g
  Colon weight/colon length: 0.25 g/cm
  Ulcer area: 498.04 ± 202.49 mm^2
[2]
  General anatomical view of colon, from excellent to poor: group using compound of Example 3>group using sulfasalazine>group using Etrasimod>group using Ozanimod
  Drug efficacy intensity (colon weight): group using the compound of Example 3 (3 mg/kg)>group using Etrasimod (3 mg/kg)>group using sulfasalazine (360 mg/kg)>model group>group using Ozanimod (10 mg/kg)
[2]; Day 1, 10 mg/kg oral gavage once a day
  Weight: 247.1 ± 0.64 g
[2]; Day 2, 10 mg/kg oral gavage once a day
  Weight: 225.6 ± 0.65 g
[2]; Day 3, 10 mg/kg oral gavage once a day
  Weight: 225.1 ± 0.86 g
[2]; Day 4, 10 mg/kg oral gavage once a day
  Weight: 225.9 ± 1.39 g
[2]; Day 5, 10 mg/kg oral gavage once a day
  Weight: 231.3 ± 1.63 g
[2]; Day 6, 10 mg/kg oral gavage once a day
  Weight: 239 ± 1.72 g
[2]; Day 7, 10 mg/kg oral gavage once a day
  Weight: 247.8 ± 1.74 g
[2]; Day 8, 10 mg/kg oral gavage once a day
  Weight: 262.8 ± 1.22 g
[3]; 20 mg/kg
  Colon length compared with model group: longer than that of the model group
[3]; 20 mg/kg oral gavage once a day for 8 days, day 9
  Colon weight: 0.157 ± 0.01 g
[3]; 20 mg/kg, day 9
  Effect on blood stool and loose stool compared with model group: had not significant improvement
[3]; Day 1
  Weight: 21.2 ± 0.19 g
[3]; Day 2
  Weight: 21.7 ± 0.25 g
[3]; Day 3
  Weight: 21.7 ± 0.26 g
[3]; Day 4
  Weight: 21.9 ± 0.33 g
[3]; Day 5
  Weight: 21.5 ± 0.27 g
[3]; Day 6
  Weight: 20.6 ± 0.54^ g
[3]; Day 7
  Total stool scores: 5.9 ± 0.11
  Weight: 18.9 ± 0.54 g
[3]; Day 8
  Total stool scores: 6.0 ± 0
  Weight: 18.0 ± 0.5 g
[3]; Day 9
  Total stool scores: 5.1 ± 0
  Weight: 16.5 ± 0.49 g
[3]; by the end of the test period, 10 mice per group, doses as Table 4 (Ozanimod 20 mg/kg)
  Number of dead animals: 3

## O=C(O)c1cc(/N=N/c2ccc(S(=O)(=O)Nc3ccccn3)cc2)ccc1O [SASP, Sulfasalazine]
[2]; [5]
  Colon length: 13.89 ± 0.45 cm
  Colon weight: 3.35 ± 0.74 g
  Colon weight/colon length: 0.24 g/cm
  Ulcer area: 320.23 ± 167.1 mm^2
[2]
  General anatomical view of colon, from excellent to poor: group using compound of Example 3>group using sulfasalazine>group using Etrasimod>group using Ozanimod
  Drug efficacy intensity (colon weight): group using the compound of Example 3 (3 mg/kg)>group using Etrasimod (3 mg/kg)>group using sulfasalazine (360 mg/kg)>model group>group using Ozanimod (10 mg/kg)
[2]; Day 1, 360 mg/kg oral gavage once a day
  Weight: 250.1 ± 0.48 g
[2]; Day 2, 360 mg/kg oral gavage once a day
  Weight: 226.4 ± 0.34 g
[2]; Day 3, 360 mg/kg oral gavage once a day
  Weight: 227.6 ± 1.13 g
[2]; Day 4, 360 mg/kg oral gavage once a day
  Weight: 231.8 ± 1.59 g
[2]; Day 5, 360 mg/kg oral gavage once a day
  Weight: 238.6 ± 1.83 g
[2]; Day 6, 360 mg/kg oral gavage once a day
  Weight: 247.3 ± 1.91 g
[2]; Day 7, 360 mg/kg oral gavage once a day
  Weight: 255 ± 2.01 g
[2]; Day 8, 360 mg/kg oral gavage once a day
  Weight: 267.9 ± 1.9 g
[2]; SASP 360 mg/kg, Example 3 and Etrasimod 3 mg/kg, oral once a day
  Weight course compared with model group: a certain tendency to inhibit the weight loss
